Assay results: patent US7176313B2, “Anti acid-fast bacterial agent containing pyridonecarboxylic acids as active ingredient” (Daiichi Pharmaceutical Co., Ltd., priority 2000, dated 2007)
Converted amounts (≈) assume the structure as drawn.

What follows are compounds tested on M. intracellulare (assay: Antibacterial activity (MIC) against M. intracellulare). Settings: M. intracellulare N-294; Table 3.
Format: cell-based, Mycobacterium intracellulare
Method: Antibacterial activity of the compounds of the invention was measured in accordance with the method described in the literature of Antimicrob. Agents and Chemother., 38, 2877 (1994), and the results are shown in Tables 3 to 8 in terms of MIC (μg/ml). In the tables, “OFLX” is an abbreviation of “OFLOXAIN”.
`C[C@H]1COc2c(N3CC4CCCNC4C3)c(F)cc3c(=O)c(C(=O)O)cn1c23` (stereo partly shown) [Compd. 13] showed an MIC of 1.56 µg/mL (≈ 4.03 µM).
`C[C@H]1COc2c(N3CC(N)C4(CC4)C3)c(F)cc3c(=O)c(C(=O)O)cn1c23` (stereo partly shown) [Compd. 14] showed an MIC of 3.13 µg/mL (≈ 8.38 µM).

Same assay, conditions: M. intracellulare N-294; Table 4 (series 2)
Work on `CCC1CN(c2c(F)cc3c(=O)c(C(=O)O)cn(C4CC4)c3c2OC)CCN1` (stereo not shown) [Compd. 17] yielded an MIC of 2.0 µg/mL (≈ 5.14 µM).
With `CCC1CN(c2c(F)cc3c(=O)c(C(=O)O)cn(C4CC4F)c3c2OC)CCN1` (stereo not shown) [Compd. 18] the MIC was 2.0 µg/mL (≈ 4.91 µM).

Same assay, conditions: M. intracellulare N-313; Table 3
`C[C@H]1COc2c(N3CC4CCCNC4C3)c(F)cc3c(=O)c(C(=O)O)cn1c23` (stereo partly shown) [Compd. 13] showed an MIC of 0.39 µg/mL (≈ 1.01 µM).
`C[C@H]1COc2c(N3CC(N)C4(CC4)C3)c(F)cc3c(=O)c(C(=O)O)cn1c23` (stereo partly shown) [Compd. 14] showed an MIC of 0.78 µg/mL (≈ 2.09 µM).

Same assay, conditions: M. intracellulare N-313; Table 4 (series 2)
For `CCC1CN(c2c(F)cc3c(=O)c(C(=O)O)cn(C4CC4)c3c2OC)CCN1` (stereo not shown) [Compd. 17], the MIC was 0.25 µg/mL (≈ 0.642 µM).
In the case of `CCC1CN(c2c(F)cc3c(=O)c(C(=O)O)cn(C4CC4F)c3c2OC)CCN1` (stereo not shown) [Compd. 18], the MIC is reported as 0.25 µg/mL (≈ 0.614 µM).

Same assay, conditions: M. intracellulare N-338; Table 3
Compound `C[C@H]1COc2c(N3CC4CCCNC4C3)c(F)cc3c(=O)c(C(=O)O)cn1c23` (stereo partly shown) [Compd. 13] has an MIC of 1.56 µg/mL (≈ 4.03 µM).
`C[C@H]1COc2c(N3CC(N)C4(CC4)C3)c(F)cc3c(=O)c(C(=O)O)cn1c23` (stereo partly shown) [Compd. 14] was tested, and the MIC was 6.25 µg/mL (≈ 16.7 µM).

Same assay, conditions: M. intracellulare N-338; Table 4 (series 2)
Work on `CCC1CN(c2c(F)cc3c(=O)c(C(=O)O)cn(C4CC4)c3c2OC)CCN1` (stereo not shown) [Compd. 17] yielded an MIC of 1.0 µg/mL (≈ 2.57 µM).
For `CCC1CN(c2c(F)cc3c(=O)c(C(=O)O)cn(C4CC4F)c3c2OC)CCN1` (stereo not shown) [Compd. 18], the MIC was 0.50 µg/mL (≈ 1.23 µM).

Same assay, conditions: M. intracellulare N-345; Table 3
For `C[C@H]1COc2c(N3CC4CCCNC4C3)c(F)cc3c(=O)c(C(=O)O)cn1c23` (stereo partly shown) [Compd. 13], the MIC was 3.13 µg/mL (≈ 8.08 µM).
`C[C@H]1COc2c(N3CC(N)C4(CC4)C3)c(F)cc3c(=O)c(C(=O)O)cn1c23` (stereo partly shown) [Compd. 14] showed an MIC of 6.25 µg/mL (≈ 16.7 µM).

Same assay, conditions: M. intracellulare N-345; Table 4 (series 2)
Work on `CCC1CN(c2c(F)cc3c(=O)c(C(=O)O)cn(C4CC4)c3c2OC)CCN1` (stereo not shown) [Compd. 17] yielded an MIC of 1.0 µg/mL (≈ 2.57 µM).
With `CCC1CN(c2c(F)cc3c(=O)c(C(=O)O)cn(C4CC4F)c3c2OC)CCN1` (stereo not shown) [Compd. 18] the MIC was 0.50 µg/mL (≈ 1.23 µM).

The compounds below were run on Mycobacterium tuberculosis (RFP sensitive) (assay: Antibacterial activity (MIC) against Mycobacterium tuberculosis (RFP sensitive)). Settings: M. tuberculosis H37Rv; Table 5.
Format: cell-based
`C[C@H]1COc2c(N3CC4CCCNC4C3)c(F)cc3c(=O)c(C(=O)O)cn1c23` (stereo partly shown) [Compd. 13] showed an MIC of 0.05 µg/mL (≈ 0.129 µM).
`C[C@H]1COc2c(N3CC(N)C4(CC4)C3)c(F)cc3c(=O)c(C(=O)O)cn1c23` (stereo partly shown) [Compd. 14] gave an MIC of 0.20 µg/mL (≈ 0.536 µM).

Same assay, conditions: M. tuberculosis H37Rv; Table 6 (series 2)
With `CCC1CN(c2c(F)cc3c(=O)c(C(=O)O)cn(C4CC4)c3c2OC)CCN1` (stereo not shown) [Compd. 17] the MIC was 0.12 µg/mL (≈ 0.308 µM).
`CCC1CN(c2c(F)cc3c(=O)c(C(=O)O)cn(C4CC4F)c3c2OC)CCN1` (stereo not shown) [Compd. 18] was tested, and the MIC was 0.12 µg/mL (≈ 0.295 µM).

Same assay, conditions: M. tuberculosis Kurono; Table 5
`C[C@H]1COc2c(N3CC4CCCNC4C3)c(F)cc3c(=O)c(C(=O)O)cn1c23` (stereo partly shown) [Compd. 13] showed an MIC of 0.05 µg/mL (≈ 0.129 µM).
In the case of `C[C@H]1COc2c(N3CC(N)C4(CC4)C3)c(F)cc3c(=O)c(C(=O)O)cn1c23` (stereo partly shown) [Compd. 14], the MIC is reported as 0.10 µg/mL (≈ 0.268 µM).

Same assay, conditions: M. tuberculosis Kurono; Table 6 (series 2)
For `CCC1CN(c2c(F)cc3c(=O)c(C(=O)O)cn(C4CC4)c3c2OC)CCN1` (stereo not shown) [Compd. 17], the MIC was 0.12 µg/mL (≈ 0.308 µM).
In the case of `CCC1CN(c2c(F)cc3c(=O)c(C(=O)O)cn(C4CC4F)c3c2OC)CCN1` (stereo not shown) [Compd. 18], the MIC is reported as 0.12 µg/mL (≈ 0.295 µM).

Same assay, conditions: M. tuberculosis No. 40; Table 5
Work on `C[C@H]1COc2c(N3CC4CCCNC4C3)c(F)cc3c(=O)c(C(=O)O)cn1c23` (stereo partly shown) [Compd. 13] yielded an MIC of 0.05 µg/mL (≈ 0.129 µM).
`C[C@H]1COc2c(N3CC(N)C4(CC4)C3)c(F)cc3c(=O)c(C(=O)O)cn1c23` (stereo partly shown) [Compd. 14] gave an MIC of 0.20 µg/mL (≈ 0.536 µM).

Same assay, conditions: M. tuberculosis No. 40; Table 6 (series 2)
For `CCC1CN(c2c(F)cc3c(=O)c(C(=O)O)cn(C4CC4)c3c2OC)CCN1` (stereo not shown) [Compd. 17], the MIC was 0.12 µg/mL (≈ 0.308 µM).
Compound `CCC1CN(c2c(F)cc3c(=O)c(C(=O)O)cn(C4CC4F)c3c2OC)CCN1` (stereo not shown) [Compd. 18] has an MIC of 0.12 µg/mL (≈ 0.295 µM).

Same assay, conditions: M. tuberculosis No. 41; Table 6 (series 2)
`CCC1CN(c2c(F)cc3c(=O)c(C(=O)O)cn(C4CC4)c3c2OC)CCN1` (stereo not shown) [Compd. 17] showed an MIC of 0.06 µg/mL (≈ 0.154 µM).
Work on `CCC1CN(c2c(F)cc3c(=O)c(C(=O)O)cn(C4CC4F)c3c2OC)CCN1` (stereo not shown) [Compd. 18] yielded an MIC of 0.06 µg/mL (≈ 0.147 µM).

Same assay, conditions: M. tuberculosis No. 43; Table 6 (series 2)
For `CCC1CN(c2c(F)cc3c(=O)c(C(=O)O)cn(C4CC4)c3c2OC)CCN1` (stereo not shown) [Compd. 17], the MIC was 2.0 µg/mL (≈ 5.14 µM).
Compound `CCC1CN(c2c(F)cc3c(=O)c(C(=O)O)cn(C4CC4F)c3c2OC)CCN1` (stereo not shown) [Compd. 18] has an MIC of 1.0 µg/mL (≈ 2.45 µM).

Same assay, conditions: M. tuberculosis No. 68; Table 5
Compound `C[C@H]1COc2c(N3CC4CCCNC4C3)c(F)cc3c(=O)c(C(=O)O)cn1c23` (stereo partly shown) [Compd. 13] has an MIC of 0.10 µg/mL (≈ 0.258 µM).
Work on `C[C@H]1COc2c(N3CC(N)C4(CC4)C3)c(F)cc3c(=O)c(C(=O)O)cn1c23` (stereo partly shown) [Compd. 14] yielded an MIC of 0.20 µg/mL (≈ 0.536 µM).

Same assay, conditions: M. tuberculosis No. 68; Table 6 (series 2)
For `CCC1CN(c2c(F)cc3c(=O)c(C(=O)O)cn(C4CC4)c3c2OC)CCN1` (stereo not shown) [Compd. 17], the MIC was 0.25 µg/mL (≈ 0.642 µM).
Compound `CCC1CN(c2c(F)cc3c(=O)c(C(=O)O)cn(C4CC4F)c3c2OC)CCN1` (stereo not shown) [Compd. 18] has an MIC of 0.25 µg/mL (≈ 0.614 µM).

These compounds were tested on M. avium (assay: Antibacterial activity (MIC) against M. avium). Settings: M. avium N-357; Table 3.
Format: cell-based, Mycobacterium avium
Method: Antibacterial activity of the compounds of the invention was measured in accordance with the method described in the literature of Antimicrob. […] In the tables, “OFLX” is an abbreviation of “OFLOXAIN”.
`C[C@H]1COc2c(N3CC4CCCNC4C3)c(F)cc3c(=O)c(C(=O)O)cn1c23` (stereo partly shown) [Compd. 13] was tested, and the MIC was 0.39 µg/mL (≈ 1.01 µM).
`C[C@H]1COc2c(N3CC(N)C4(CC4)C3)c(F)cc3c(=O)c(C(=O)O)cn1c23` (stereo partly shown) [Compd. 14] was tested, and the MIC was 1.56 µg/mL (≈ 4.18 µM).

Same assay, conditions: M. avium N-357; Table 4 (series 2)
`CCC1CN(c2c(F)cc3c(=O)c(C(=O)O)cn(C4CC4)c3c2OC)CCN1` (stereo not shown) [Compd. 17] was tested, and the MIC was 1.0 µg/mL (≈ 2.57 µM).
`CCC1CN(c2c(F)cc3c(=O)c(C(=O)O)cn(C4CC4F)c3c2OC)CCN1` (stereo not shown) [Compd. 18] showed an MIC of 0.50 µg/mL (≈ 1.23 µM).

Same assay, conditions: M. avium N-444; Table 3
In the case of `C[C@H]1COc2c(N3CC4CCCNC4C3)c(F)cc3c(=O)c(C(=O)O)cn1c23` (stereo partly shown) [Compd. 13], the MIC is reported as 0.78 µg/mL (≈ 2.01 µM).
In the case of `C[C@H]1COc2c(N3CC(N)C4(CC4)C3)c(F)cc3c(=O)c(C(=O)O)cn1c23` (stereo partly shown) [Compd. 14], the MIC is reported as 3.13 µg/mL (≈ 8.38 µM).

Same assay, conditions: M. avium N-444; Table 4 (series 2)
`CCC1CN(c2c(F)cc3c(=O)c(C(=O)O)cn(C4CC4)c3c2OC)CCN1` (stereo not shown) [Compd. 17] gave an MIC of 2.0 µg/mL (≈ 5.14 µM).
`CCC1CN(c2c(F)cc3c(=O)c(C(=O)O)cn(C4CC4F)c3c2OC)CCN1` (stereo not shown) [Compd. 18] gave an MIC of 2.0 µg/mL (≈ 4.91 µM).

Same assay, conditions: M. avium N-458; Table 3
`C[C@H]1COc2c(N3CC4CCCNC4C3)c(F)cc3c(=O)c(C(=O)O)cn1c23` (stereo partly shown) [Compd. 13] showed an MIC of 0.20 µg/mL (≈ 0.516 µM).
In the case of `C[C@H]1COc2c(N3CC(N)C4(CC4)C3)c(F)cc3c(=O)c(C(=O)O)cn1c23` (stereo partly shown) [Compd. 14], the MIC is reported as 1.56 µg/mL (≈ 4.18 µM).

Same assay, conditions: M. avium N-458; Table 4 (series 2)
`CCC1CN(c2c(F)cc3c(=O)c(C(=O)O)cn(C4CC4)c3c2OC)CCN1` (stereo not shown) [Compd. 17] showed an MIC of 1.0 µg/mL (≈ 2.57 µM).
In the case of `CCC1CN(c2c(F)cc3c(=O)c(C(=O)O)cn(C4CC4F)c3c2OC)CCN1` (stereo not shown) [Compd. 18], the MIC is reported as 1.0 µg/mL (≈ 2.45 µM).

Same assay, conditions: M. avium N-472; Table 3
Work on `C[C@H]1COc2c(N3CC4CCCNC4C3)c(F)cc3c(=O)c(C(=O)O)cn1c23` (stereo partly shown) [Compd. 13] yielded an MIC of 1.56 µg/mL (≈ 4.03 µM).
`C[C@H]1COc2c(N3CC(N)C4(CC4)C3)c(F)cc3c(=O)c(C(=O)O)cn1c23` (stereo partly shown) [Compd. 14] was tested, and the MIC was 6.25 µg/mL (≈ 16.7 µM).

Same assay, conditions: M. avium N-472; Table 4 (series 2)
`CCC1CN(c2c(F)cc3c(=O)c(C(=O)O)cn(C4CC4)c3c2OC)CCN1` (stereo not shown) [Compd. 17] was tested, and the MIC was 8.0 µg/mL (≈ 20.5 µM).
`CCC1CN(c2c(F)cc3c(=O)c(C(=O)O)cn(C4CC4F)c3c2OC)CCN1` (stereo not shown) [Compd. 18] showed an MIC of 8.0 µg/mL (≈ 19.6 µM).
